Results on ten compounds are retold here after patent publication US6071747A, “Immortalized cell lines from human adipose tissue, process for preparing same and applications thereof” (Centre National de la Recherche Scientifique-CNRS, priority 1995, dated 2000).

Read-outs that look alike come from different tables or passages of the source.

The subject of series [1] is β-adrenergic receptors coupled with adenylyl cyclase in PAZ-6 cells. Conditions: for Accumulation of cAMP, pmol cAMP/mg protein: agonist 15 min at 37° C.
Method: (§1) The following method is used to determine the intracellular levels of cAMP:
(§2) The incubation buffer is removed and the cells are lyzed in 1 M NaOH for at least 20 min at 37° C. The lyzate is neutralized with 1 M acetic acid and centrifuged in a microcentrifuge at maximum speed for 5 min.
(§3) The supernatant is used to determine the cAMP (cAMP-^3 H kit, Amersham).
Series [2] concerns differentiated PAZ-6 human adipocytes. As to the kind of experiment: Lipolysis assay (glycerol release) on the PAZ-6 line. It is filed as cell-based. Conditions: differentiated PAZ-6 adipocytes; 2 hours at 37° C.; forskolin 10^-4 M, other agonists 10^-5 M; catecholamines with or without phentolamine 20 μg/ml. The protocol: The lipolysis test consists in measuring the amount of glycerol generated by the mature adipocytes treated with lipolytic ligands.
Monolayers of (differentiated) mature adipocytes in culture plates (6 wells) are washed and preincubated overnight in DMEM/Ham's F12 (1:1, v/v) comprising 1% of fatty acid-free BSA. The cells are then incubated in a Krebs-Ringer phosphate buffer (pH 7.4) comprising 2% of fatty acid-free BSA, 4.5 g/l of glucose, 50 μg/ml of Na2 S2 O5 and the β-adrenergic ligands, in a volume of 500 μl, for 2 hours at 37° C.
The glycerol level is measured on 100 μl of incubation medium by following the reduction of NAD to NADH at 340 nm in the presence of 10 μg/ml of glycerol dehydrogenase (derived from Enterobacter aerogenes, Boehringer Mannheim) in the following reaction buffer: K2 CO3 /NaHCO3 125 mM pH 10, NAD 3.5 mM and (NH4)2 SO4 330 mM.

The test system of a further series is PAZ-6 preadipocytes. Nature of the series: Differentiation of PAZ-6 preadipocytes into mature adipocytes. It is filed as cell-based, human. The settings on record: in the presence of insulin and dexamethasone; 1 μM pioglitazone. The method, then: The cells are inoculated at a density of 10,000 cells/cm^2 and cultivated for 3 days in a medium containing 6% of foetal calf serum in order to obtain confluence; an ITT medium (DMEM/HAM F12 medium supplemented with biotin, pantothenate, Hepes, T3, penicillin and streptomycin, as defined above) is then added to said cells, said medium also containing 0.1 μM dexamethasone, 850 nM insulin, 1 μM pioglitazone and 0.25 mM IBMX (3-isobutyl-1-methylxanthine) for 4 days.

The next series relates to Ob mice. Conditions: Ob mice with mutant gene; injected; cited from earlier work.
Series [3] has as its system β-adrenergic receptors (I-CYP binding sites) of PAZ-6 cells. The method, then: * determination of the binding sites for the β antagonist ligand iodocyanopindolol (I-CYP) in the PAZ-6 cell line
The cells are washed with PBS, incubated for 5 minutes at 37° C. with a solution of trypsin/2% EDTA and resuspended in DMEM supplemented with 10% (v/v) of horse serum.
After centrifugation at 450×g for 5 minutes at 4° C., the cellular residue is washed twice with PBS and the cells are then resuspended in PBS.
The actual binding assay itself is carried out for 90 min at 25° C. in a final volume of […] of PBS supplemented with 50 mg/ml of bovine serum albumin and 1 mM desipramine.
The reaction is stopped by rapid filtration through a Whatman GF/C glass fibre filter previously immersed for 30 min in a solution of PBS containing 0.3% of polyethyleneimine (to reduce the non-specific bindings).
The protein concentrations are determined by the method of M. Bradford (Anal. Biochem., 1976, 72, 248-256).
Bovine serum albumin is used as the standard and the cellular suspensions are homogenized with a Polytron homogenizer for a maximum of 5 seconds before the reaction.

The test system of series [4] is mRNA coding for the Ob protein. The settings on record: rat adipocytes; cited from earlier work.
Series [5] has as its target β-adrenergic receptors coupled with adenylyl cyclase in PAZ-6 cells (Homo sapiens, UniProt P13945). The settings on record: differentiated PAZ-6; 15 min.
Method: as §1, §2, §3

Sequence of β-adrenergic receptors coupled with adenylyl cyclase in PAZ-6 cells (Homo sapiens, UniProt P13945) (P13945 whole entry): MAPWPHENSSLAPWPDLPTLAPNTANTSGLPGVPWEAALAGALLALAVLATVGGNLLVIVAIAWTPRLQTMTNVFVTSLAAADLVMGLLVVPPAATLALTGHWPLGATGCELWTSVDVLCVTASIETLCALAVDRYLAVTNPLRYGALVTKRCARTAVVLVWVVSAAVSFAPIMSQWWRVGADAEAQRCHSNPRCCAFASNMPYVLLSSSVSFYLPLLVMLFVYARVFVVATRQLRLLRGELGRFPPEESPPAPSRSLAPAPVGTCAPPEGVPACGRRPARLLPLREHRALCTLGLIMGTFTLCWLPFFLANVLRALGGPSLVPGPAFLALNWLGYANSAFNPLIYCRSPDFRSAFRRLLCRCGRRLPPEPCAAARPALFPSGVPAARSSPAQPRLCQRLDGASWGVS

For `CC(C)NCC(O)c1ccc(O)c(O)c1` (stereo not shown) [isoproterenol, isoprenaline], the “Accumulation of cAMP, pmol cAMP/mg protein” value in series [1] (PAZ-6 differentiated) turned out to be 2083 pmol cAMP/mg protein; in series [1] (PAZ-6 not differentiated) it was 4344 pmol cAMP/mg protein.

In the case of `CNC[C@H](O)c1ccc(O)c(O)c1` [epinephrine], in series [2], the “lipolysis (glycerol generated relative to basal level, FIG. 4)” value was “lipolysis induced”. With `C=C[C@@]1(C)CC(=O)[C@]2(O)[C@@]3(C)[C@@H](O)CCC(C)(C)[C@@H]3[C@H](O)[C@H](OC(C)=O)[C@@]2(C)O1` [forskolin], in series [2], the “lipolysis (glycerol generated relative to basal level, FIG. 4)” value is given as “lipolysis induced”.

For `O=C(O)COc1ccc(OCCNCC(O)COc2ccccc2)cc1` (stereo not shown) [ICI 201651], the “lipolysis (glycerol generated relative to basal level, FIG. 4)” value in series [2] was “Lipolysis is also seen to be induced”.

As for `CCc1ccc(CCOc2ccc(CC3SC(=O)NC3=O)cc2)nc1` (stereo not shown) [pioglitazone], in the series with PAZ-6 preadipocytes, the “differentiation into mature adipocytes” value is listed as “significantly increased”. Take “leptin: leptin (Ob protein), product of the Ob gene”: in the series with Ob mice, the appetite and obesity result is “reduces appetite and hence obesity”. Turning to `Cc1ccc(OCC(O)C(C)NC(C)C)c2c1CCC2` (stereo not shown) [ICI 118551], in series [3], the “reduction of the number of I-CYP binding sites” value is listed as 34%. `C[C@H](Cc1ccc2c(c1)OC(C(=O)O)(C(=O)O)O2)NC[C@H](O)c1cccc(Cl)c1` [CL 316,43]: the “lipolysis (glycerol generated relative to basal level, FIG. 4)” value in series [2] is listed as “Lipolysis is also seen to be induced”. Also, the “levels of mRNA coding for the Ob protein” value in series [4] is listed as “reduce substantially”. Regarding `NC[C@H](O)c1ccc(O)c(O)c1` [norepinephrine], the “lipolysis (glycerol generated relative to basal level, FIG. 4)” value in series [2] was “lipolysis induced”. For the compound `CC(C)(C)NCC(O)COc1cccc2[nH]c(=O)[nH]c12` (stereo not shown) [CGP 12177A], in series [2], the “lipolysis (glycerol generated relative to basal level, FIG. 4)” value is reported as “Lipolysis is also seen to be induced”. Further, the “Accumulation of cAMP, pmol cAMP/mg protein” value in series [1] (PAZ-6 differentiated) was determined as 323 ± 129 pmol cAMP/mg protein; in series [1] (PAZ-6 not differentiated), 254 ± 167 pmol cAMP/mg protein. Further, in series [1] (undifferentiated PAZ-6), the “stimulation of the adenylyl cyclase” value was “does not cause any significant stimulation”. In series [5], the “stimulation (cAMP) compared with isoproterenol activating all β-AR sites” value is listed as 20%.
